Entries after “also recorded” stand apart in the source; their conditions may differ.

Assay in all cases: gRNA knockout efficiency
The subject of one data set is CD2. The format is cell-based.
Another data set concerns CD7. The conditions noted are these: used together with TRAC-gRNA1.
The next data set relates to TCR.

Description for CD7: (§1) For gene editing, 3 μg Cas9 protein and 1.5 μg gRNA were mixed in 20 μl and incubated at 37° C. or room temperature for 15 minutes to form ribonucleoprotein (RNP). Then RNP was transfected into T cells by Lonza 4D Nucleofector®. Gene knockout efficiency was determined by the ratio of the cells expressing the protein as detected by flow cytometry (FACS).
For gene editing, 3 μg Cas9 protein and 1.5 μg gRNA were mixed in 20 μl and incubated at 37° C. or room temperature for 15 minutes to form ribonucleoprotein (RNP). Then RNP was transfected into T cells by Lonza 4D Nucleofector®. Gene knockout efficiency was determined by the ratio of the cells expressing the protein as detected by flow cytometry.
Description for TCR: as §1
First, gRNA sequences targeting the exon of the TCR conserved region were designed at http://crispr.mit.edu, and two gRNA sequences with scores above 80 were selected for higher knockout efficiency. For the gRNA primer, the forward primer comprises a T7 promotor followed by 20 bp of the target sequence, and the reverse primer has 20 bp of the complementary sequence. Plasmids were used as PCR template. After purification, T7-PCR product was further used as the template for MEGAshortscript® T7 kit to obtain RNA. The RNA was purified with a MEGAclear® column and eluted with RNA-free water. Cas9 plasmid was purchased from Addgene.
Meanwhile, the knockout efficiency of the gRNA was analyzed by T7E1, TIDE and flow cytometry.
For gene editing, 3 μg Cas9 protein and 1.5 μg gRNA were mixed in 20 μl and incubated at 37° C. or room temperature for 15 minutes to form ribonucleoprotein (RNP). […] Gene knockout efficiency was determined by the ratio of the cells expressing the protein as detected by flow cytometry.

On to “CD2 gRNA2: gRNA GTGCCACAAAGACCATCAAG (SEQ ID NO 30) (listed as DNA, chemistry not given here)”, for which the CD2 knockout efficiency result with CD2 is on record as “the highest CD2 knockout efficiencies”.

In the case of “CD7-gRNA1: gRNA GAGGTCAATGTCTACGGCTC (SEQ ID NO 25) (listed as DNA, chemistry not given here)”, the CD7 knockout efficiency result in the data set with CD7 is recorded as “high knockout efficiencies; also recorded: obviously better”.

As for “CD7-gRNA4: gRNA GGAGCAGGTGATGTTGACGG (SEQ ID NO 28) (listed as DNA, chemistry not given here)”, the CD7 knockout efficiency result in the data set with CD7 is listed as “obviously better”.

Regarding “TRAC-gRNA2: gRNA TCAGGGTTCTGGATATCTGT (SEQ ID NO 21) (listed as DNA, chemistry not given here)”, the “knockout efficiency for TCR” value in the data set with TCR is on record as “high knockout efficiencies”.

For the origin of these results see US12454564B2, “Compositions and methods for T cell engineering” (Gracell Biotechnologies (Shanghai) Co., Ltd., priority 2018, dated 2025).
